Measured values published in patent US12590099B2, “Inhibitors of histone deacetylase useful for the treatment or prevention of HIV infection” (Merck Sharp & Dohme LLC, priority 2018, dated 2026).
Read-outs that look alike come from different tables or passages of the source.

System: KARN cells (Jurkat 2C4)
Test: cells
Assay type: cell-based
Procedure, shortened: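 Luminescence (Steady-Glo, 10 min, room temperature) measured next day in KARN Jurkat 2C4 cells given compounds at up to 40 μM final with 0.4% DMSO. Percent activation normalised to DMSO (0%) and 2 μM SAHA (100%), fitted by 4-parameter curve.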

[1] = Homo sapiens, Jurkat, read-out: Karn EC50 (nM) 0.1% NHS, 0.1% normal human serum
[2] = Homo sapiens, Jurkat, read-out: Karn EC50 (nM) 5% NHS, 5% normal human serum

| SMILES | EC50 [1] [nM] | EC50 [2] [nM] | EC50 (read-out: Karn EC50 (nM) 0.1% NHS, 0.1% normal human serum) [nM] | EC50 (read-out: Karn EC50 (nM) 5% NHS, 5% normal human serum) [nM] |
| --- | --- | --- | --- | --- |
| CCC(=O)CCCCC[C@H](NC(=O)[C@H]1CC12CCN(CC)CC2)c1ncc(-c2ccc3c(=O)n(C4CC4)ccc3c2)o1 [Compound 153] | 452 | 447 | – | – |
| CCC(=O)CCCCC[C@H](NC(=O)[C@H]1CC12CCN(C)CC2)c1ncc(-c2ccc3nc(C4CC4)oc3c2)[nH]1 [Compound 160] | 200 | 234 | – | – |
| CCC(=O)CCCCC[C@H](NC(=O)C1=NOC2(CCN(C(C)C)CC2)C1)c1ncc(-c2cc3ccccc3nc2OC)[nH]1 [Compound 106, N-{(1S)-1-[5-(2-methoxyquinolin-3-yl)-1H-imidazol-2-yl]-7-oxononyl}-8-(1-methylethyl)-1-oxa-2,8-diazaspiro[4.5]dec-2-ene-3-carboxamide] | 143 | 1070 | – | – |
| CCC(=O)CCCCC[C@H](NC(=O)C1=NOC2(CCN(CC)CC2)C1)c1ncc(-c2cc3ccc(C)nc3cc2OC)o1 [Compound 204] | 165 | 152 | – | – |
| CCC(=O)CCCCC[C@H](NC(=O)[C@H]1CC12CCN(C)CC2)c1ncc(-c2ccc3nc(C4CC4)sc3c2)[nH]1 [Compound 146] | 122 | 112 | – | – |
| CCC(=O)CCCCC[C@H](NC(=O)[C@H]1CC12CCN(CC)CC2)c1ncc(-c2ccc3nc(C4CC4)ccc3c2)[nH]1 [Compound 101] | 41 | 36 | – | – |
| CN1CCC2(CC1)C[C@@H]2C(=O)N[C@@H](CCCCCC(=O)CC(F)(F)F)c1ncc(-c2ccc(F)cc2)[nH]1 [Compound 68] | > 40000 | – | – | – |
| CCC(=O)CCCCC[C@H](NC(=O)[C@H]1CC12CCN(C)CC2)c1ncc(-c2ccc3oc(=O)ccc3c2)[nH]1 [Compound 138] | 210 | 223 | – | – |
| CCC(=O)CCCCC[C@H](NC(=O)[C@H]1CC12CCN(CC)CC2)c1ncc(-c2ccc3c(=O)n(C(C)C)ccc3c2)[nH]1 [Compound 126] | 53 | 33 | – | – |
| CC(O)C(=O)CCCCC[C@H](NC(=O)[C@H]1CC12CCN(C)CC2)c1nc(-c2ccc(F)cc2)c[nH]1 (stereo partly drawn) [Compound 134, (1S)—N-{(1S)-1-[4-(4-fluorophenyl)-1H-imidazol-2-yl]-8-hydroxy-7-oxononyl}-6-methyl-6-azaspiro[2.5]octane-1-carboxamide] | 2410 | 2190 | – | – |
| CCC(=O)CCCCC[C@H](NC(=O)[C@H]1CC12CCN(C)CC2)c1ncc(-c2ccc3nc(CC)sc3c2)[nH]1 [Compound 149] | 92 | 73 | – | – |
| CCC(=O)CCCCC[C@H](NC(=O)[C@H]1CC12CCN(C)CC2)c1ncc(-c2ccc3c(ccc(=O)n3C)c2)o1 [Compound 109] | 706 | 579 | – | – |
| CCC(=O)CCCCC[C@H](NC(=O)C1=NOC2(CCN(C)CC2)C1)c1ncc(-c2cc3ccc(C)nc3cc2F)o1 [Compound 221] | 344 | 581 | – | – |
| CCC(=O)CCCCC[C@H](NC(=O)C1(CC(C)C)CC2(CN(C)C2)C1)c1ncc(-c2ccc3nc(C)ccc3c2)[nH]1 [Compound 157] | 451 | 557 | – | – |
| CCN1CCC2(CC1)C[C@@H]2C(=O)N[C@@H](CCCCCC(=O)CC1CCC1)c1ncc(-c2cc3ccc(C)nc3cc2OC)o1 [Compound 184] | 1630 | 2760 | – | – |
| COc1cc2nc(C)ccc2cc1-c1cnc([C@H](CCCCCC(=O)CC2CCC2)NC(=O)[C@H]2CC23CCN(C)CC3)o1 [Compound 185] | 1330 | 2960 | – | – |
| CCC(=O)CCCCC[C@H](NC(=O)[C@H]1CC12CCN(CC1CC1)CC2)c1ncc(-c2ccc3nc(C4CC4)ccc3c2)[nH]1 [Compound 104] | 33 | 28 | – | – |
| CCC(=O)CCCCC[C@H](NCCN(C)C)c1ncc(-c2cc3ccc(C)nc3cc2OC)[nH]1 [Compound 217, (9S)-9-{[2-(dimethylamino)ethyl]amino}-9-[5-(7-methoxy-2-methylquinolin-6-yl)-1H-imidazol-2-yl]nonan-3-one] | 576 | 518 | – | – |
| CCC(=O)CCCCC[C@H](NC(=O)[C@H]1CC12CCN(C)CC2)c1ncc(-c2cc3ccccc3nc2OC)o1 [Compound 125] | 154 | 256 | – | – |
| CCC(=O)CCCCC[C@H](NC(=O)[C@H]1CC12CCN(C)CC2)c1ncc(-c2cc3ccc(=O)n(C)c3cc2OC)o1 [Compound 198] | 147 | 176 | – | – |
| CCC(=O)CCCCC[C@H](NC(=O)[C@H]1CC12CCN(CC)CC2)c1ncc(-c2ccc3c(cnn3C3CC3)c2)[nH]1 [Compound 159] | 73 | 57 | – | – |
| CCC(=O)CCCCC[C@H](NC(=O)C1CC12CCN(C)C(C)(C)C2)c1ncc(-c2ccc3nc(C)ccc3c2)[nH]1 (single isomer, unassigned) [Compound 133] | – | – | 89 | 81 |
